Experiments:
AADC [1] = test: Ex vivo AADC activity in organs of mice after repeated i.p. doses (Table II); set-up: species or system mice (Swiss Albino); conditions: three days, 12 h after 6th dose, vs control
Procedure: (§1) The test animals (e.g. mice or rats) are given the test compound in a suitable vehicle, either orally or by injection, each day over the period of time desired. The animals are kept on a constant time cycle, and body weights are measured daily. The animals are sacrificed by decapitation 12 to 24 hours after receiving the last dose of the test compound. Control animals receive the vehicle alone.
(§2) Immediately after death, the organs (brain, heart, and kidney) are removed and homogenized either in 50 ml phosphate buffer pH 6.8 for AADC determination or in ice-cold 0.4 M HClO4 containing 0.05% (w/v) EDTA and 0.1% (w/v) sodium bisulfite for catecholamine determination. AADC activity is determined by the ^14 CO2 trapping method of J. Christenson, supra (see Example 14) using DL-[1-^14 C]-dopa as the substrate. Catecholamines are determined by centrifuging the homogenate, adding the supernatant to alumina buffered to pH 8.0-8.4 to adsorb the catecholamines, re-extracting the catecholamines from the alumina with 0.2 M HClO4 and determining the catecholamines in the extracts using known procedures, such as by reversed-phase ion-pair HPLC with electrochemical detection.
(§3) Table II, shown below, sets forth the results obtained by testing particular compounds of Formula I in the above-described procedure in mice (Swiss Albino) after i.p. administration of the compound twice daily for three days: […]

[2] = tested on: catecholamine content (norepinephrine, dopamine); test: Catecholamine content in organs of mice after repeated i.p. doses (Table II); assay type: in vivo, mice (Swiss Albino); conditions: three days, 12 h after 6th dose, vs control
Procedure: as §1, §2, §3

AADC [3] = target: T1, AADC (Sus scrofa, UniProt P80041); test: In vitro AADC inhibition: time of 90% inactivation (14CO2 trapping, DL-[1-14C]-dopa substrate); assay type: biochemical, hog; set-up: key to RATING: ++++: The relative activities of the compounds are rated by the given number of "plus" signs; +++: The relative activities of the compounds are rated by the given number of "plus" signs; 0-+: The relative activities of the compounds are rated by the given number of "plus" signs; conditions: CONC. 100 μM; for TIME OF 90% INACTIVATION: pH 7.4, 37° C.; for RATING: relative activity
T1 sequence (P80041 1-486): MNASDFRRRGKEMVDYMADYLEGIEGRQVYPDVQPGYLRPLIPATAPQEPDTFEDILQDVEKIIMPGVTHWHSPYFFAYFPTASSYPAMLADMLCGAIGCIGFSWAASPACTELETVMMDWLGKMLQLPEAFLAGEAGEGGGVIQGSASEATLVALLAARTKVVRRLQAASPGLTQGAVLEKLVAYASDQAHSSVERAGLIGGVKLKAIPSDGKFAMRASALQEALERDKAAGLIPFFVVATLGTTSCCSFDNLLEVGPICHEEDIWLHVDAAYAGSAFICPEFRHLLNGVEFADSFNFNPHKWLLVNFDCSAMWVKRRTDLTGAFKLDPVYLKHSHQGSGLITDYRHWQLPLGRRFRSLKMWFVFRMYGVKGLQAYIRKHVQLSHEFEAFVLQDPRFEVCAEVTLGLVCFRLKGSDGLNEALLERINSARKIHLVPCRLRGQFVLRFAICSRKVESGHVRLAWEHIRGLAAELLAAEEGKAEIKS
Procedure: AADC can be purified from hog kidney by the general method of J. Christenson et al. Archs. Biochem. Biophys., 141, 356 (1970) and G. Lancaster et al., Can. J. Biochem., 50, 791 (1972), and the specific activity of the enzyme is determined by the ^14 CO2 trapping method using DL-[1-^14 C]-dopa as the substrate (see Christenson et al.). One unit of activity is defined as the total amount of enzyme which produces 1 n mol of CO2 per minute, with DL-[1-^14 C]-dopa as substrate.
To 100 μl of 50 mM-phosphate buffer pH 7.4 containing 100 mM-mercapto-ethanol are added 5 μl of an aqueous solution containing the test compound at the desired concentration and 50 μl of an aqueous solution containing 2 units of AADC. The mixture is incubated at 37° C. and 20 μl aliquots are removed at various times. The AADC activity remaining in each aliquot is measured by the CO2 trapping method of Christenson.
The relative activities of the compounds are rated by the given number of "plus" signs.

[4] = Deaths in mice after repeated i.p. doses (Table II footnotes); assay type: in vivo, mice (Swiss Albino); conditions: 100 mg/kg i.p. twice daily, three days; number dead of animals
Procedure: as §1, §3

AADC [5] = test: Ex vivo AADC activity in brain of rats after repeated i.p. doses (Table II, footnote c); conditions: 100 mg/kg i.p. twice daily, three days, 12 h after 6th dose, vs control
Procedure: as §1, §2, §3

[6] = tested on: catecholamine content (norepinephrine, dopamine); test: Catecholamine content in organs of rats after repeated i.p. doses (Table II, footnote c); assay type: in vivo; conditions: 100 mg/kg i.p. twice daily, three days, 12 h after 6th dose, vs control
Procedure: as §1, §2, §3

[7] = tested on: endogenous catecholamine and 5-HT levels; test: Effect on endogenous catecholamine and 5-HT levels in brain and heart (general statement); assay type: in vivo

For `Cc1ccc(CC(N)(CF)C(=O)O)c(O)c1` (centres unmarked) [2-OH4-methyl phenyl, 2-amino-2-fluoromethyl-3-(2-hydroxy-4-methylphenyl)propionic acid], the “% CHANGE AADC Brain” value (AADC [1]; 10 mg/kg i.p. twice daily) was -39%, the “% CHANGE AADC Kidney” value (AADC [1]; 10 mg/kg i.p. twice daily) was -70% and the “% CHANGE AADC Brain” value (AADC [1]; 100 mg/kg i.p. twice daily) was -99%. The “% CHANGE AADC Kidney” value (AADC [1]; 100 mg/kg i.p. twice daily) was -99.5%, the “% CHANGE NOREPINEPHRINE Brain” value ([2]; 10 mg/kg i.p. twice daily, * not significant) was 0% and the “% CHANGE NOREPINEPHRINE Heart” value ([2]; 10 mg/kg i.p. twice daily, * not significant (-25*, -7*)) was -7%. For the same molecule, the “% CHANGE DOPAMINE Brain” value ([2]; 10 mg/kg i.p. twice daily, * not significant (-25*, -9*)) was -9%, the “% CHANGE NOREPINEPHRINE Brain” value ([2]; 100 mg/kg i.p. twice daily) was -69% and the “% CHANGE NOREPINEPHRINE Heart” value ([2]; 100 mg/kg i.p. twice daily) was -75%. For the same molecule, the “% CHANGE DOPAMINE Brain” value ([2]; 100 mg/kg i.p. twice daily, * not significant (-35*)) was -35%, the “TIME OF 90% INACTIVATION” value (AADC [3]) was 1 min and the RATING (AADC [3]) was “+++”. The dead [4] was 2/5.
In the case of `NC(CF)(Cc1ccc(O)cc1)C(=O)O` (centres unmarked) [Example 4-OH-phenyl, 2-Amino-2-fluoromethyl-3-(4-hydroxyphenyl)propionic acid], the “% CHANGE AADC Brain” value (AADC [5]) is reported as -88%, the “% CHANGE DOPAMINE Brain” value [6] is reported as -88% and the “% CHANGE NOREPINEPHRINE Brain” value [6] is reported as -54%. The “% CHANGE NOREPINEPHRINE Heart” value [6] was -45%, the “TIME OF 90% INACTIVATION” value (AADC [3]) was > 300 min and the RATING (AADC [3]) was 0-+. For the same molecule, the “selectivity (brain catecholamines lowered, not heart, not brain 5-HT)” value [7] was “not found”.
